Assay results taken from ChEMBL document CHEMBL1126077 (J Med Chem, 1992).

Legend:
[1] = biological target: T1, Cholesterol side-chain cleavage enzyme, mitochondrial (Bos taurus, UniProt P00189); experiment: Inhibition of bovine adrenal desmolase at 25 uM; details: cattle; for Inhibition: 25 µM
T1 sequence (P00189 whole entry): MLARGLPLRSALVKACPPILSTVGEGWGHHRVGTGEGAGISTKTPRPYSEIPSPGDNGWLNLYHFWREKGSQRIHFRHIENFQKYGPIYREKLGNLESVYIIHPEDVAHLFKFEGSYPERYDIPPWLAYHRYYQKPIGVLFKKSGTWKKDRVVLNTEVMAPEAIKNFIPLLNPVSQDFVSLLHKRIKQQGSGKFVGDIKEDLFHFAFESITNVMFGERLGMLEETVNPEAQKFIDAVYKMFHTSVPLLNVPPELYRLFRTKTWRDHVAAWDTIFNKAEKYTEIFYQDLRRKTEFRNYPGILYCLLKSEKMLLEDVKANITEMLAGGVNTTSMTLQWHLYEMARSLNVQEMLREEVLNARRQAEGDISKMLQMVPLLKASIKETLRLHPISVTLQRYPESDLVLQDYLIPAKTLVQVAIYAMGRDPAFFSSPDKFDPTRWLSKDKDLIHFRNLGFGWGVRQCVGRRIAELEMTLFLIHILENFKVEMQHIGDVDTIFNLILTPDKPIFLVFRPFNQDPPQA

Aromatase = biological target: T2, Aromatase (Homo sapiens, UniProt P11511)
T2 sequence (P11511 whole entry): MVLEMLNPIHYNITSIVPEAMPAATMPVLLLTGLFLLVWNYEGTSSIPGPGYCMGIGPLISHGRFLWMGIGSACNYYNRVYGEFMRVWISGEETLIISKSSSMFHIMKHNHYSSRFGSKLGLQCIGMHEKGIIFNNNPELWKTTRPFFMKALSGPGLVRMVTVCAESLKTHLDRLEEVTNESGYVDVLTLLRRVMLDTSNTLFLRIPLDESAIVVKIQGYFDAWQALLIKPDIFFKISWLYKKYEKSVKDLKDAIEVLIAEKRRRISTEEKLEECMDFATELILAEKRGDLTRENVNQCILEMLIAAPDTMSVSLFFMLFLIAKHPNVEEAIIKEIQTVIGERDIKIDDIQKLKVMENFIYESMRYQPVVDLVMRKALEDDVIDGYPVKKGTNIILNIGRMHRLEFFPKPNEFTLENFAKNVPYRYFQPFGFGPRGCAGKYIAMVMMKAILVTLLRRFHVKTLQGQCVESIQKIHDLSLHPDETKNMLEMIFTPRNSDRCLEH
Description: Concentration inhibiting Aromatase

[2] = biological target: T1, Cholesterol side-chain cleavage enzyme, mitochondrial; experiment: Inhibition of bovine adrenal desmolase

SMILES	inhibition at 25 µM [1]	IC50 (Aromatase)	IC50 [2]	Inhibition [1]
CC[C@@]1(c2ccc(N)cc2)CCC(=O)NC1=O	36%			
CC[C@]1(c2ccc(N)cc2)CCC(=O)NC1=O	67%			
Nc1ccc(C2(C3CCCC3)CCC(=O)NC2=O)cc1 (centres undefined)	59%	1200 nM		
Nc1ccc(C2(C3CCCCC3)CCC(=O)NC2=O)cc1 (single isomer, unassigned; (+))		150 nM	82 µM	19%
Nc1ccc(C2(C3CCCCC3)CCC(=O)NC2=O)cc1 (single isomer, unassigned; (-))		4600 nM		39%
Nc1ccc(C2(C3CCCCC3)CCC(=O)NC2=O)cc1 (stereo in doubt; 2)		300 nM	67 µM	31%
CCC1(c2ccc(N)cc2)CCC(=O)NC1=O (centres undefined) [AMINOGLUTETHIMIDE]	57%		29 µM	
